Assay results published in PMC3758386 (Psychopharmacology, 2013).
Where “and” joins values, the source holds several entries; their conditions need not be identical. Equal entries are not always repeated.

Key:
[1] = system: DAT; experiment: radioligand binding, DAT; details: from Ki values of Table 2
[2] = system: rats; experiment: Place conditioning; type: in vivo; details: rat
[3] = molecular target: K+ Channel hERG (Homo sapiens, UniProt Q12809); experiment: receptor screen, K+ Channel hERG; type: binding; details: from Ki values of Table 2
Chain of K+ Channel hERG (Q12809 whole entry): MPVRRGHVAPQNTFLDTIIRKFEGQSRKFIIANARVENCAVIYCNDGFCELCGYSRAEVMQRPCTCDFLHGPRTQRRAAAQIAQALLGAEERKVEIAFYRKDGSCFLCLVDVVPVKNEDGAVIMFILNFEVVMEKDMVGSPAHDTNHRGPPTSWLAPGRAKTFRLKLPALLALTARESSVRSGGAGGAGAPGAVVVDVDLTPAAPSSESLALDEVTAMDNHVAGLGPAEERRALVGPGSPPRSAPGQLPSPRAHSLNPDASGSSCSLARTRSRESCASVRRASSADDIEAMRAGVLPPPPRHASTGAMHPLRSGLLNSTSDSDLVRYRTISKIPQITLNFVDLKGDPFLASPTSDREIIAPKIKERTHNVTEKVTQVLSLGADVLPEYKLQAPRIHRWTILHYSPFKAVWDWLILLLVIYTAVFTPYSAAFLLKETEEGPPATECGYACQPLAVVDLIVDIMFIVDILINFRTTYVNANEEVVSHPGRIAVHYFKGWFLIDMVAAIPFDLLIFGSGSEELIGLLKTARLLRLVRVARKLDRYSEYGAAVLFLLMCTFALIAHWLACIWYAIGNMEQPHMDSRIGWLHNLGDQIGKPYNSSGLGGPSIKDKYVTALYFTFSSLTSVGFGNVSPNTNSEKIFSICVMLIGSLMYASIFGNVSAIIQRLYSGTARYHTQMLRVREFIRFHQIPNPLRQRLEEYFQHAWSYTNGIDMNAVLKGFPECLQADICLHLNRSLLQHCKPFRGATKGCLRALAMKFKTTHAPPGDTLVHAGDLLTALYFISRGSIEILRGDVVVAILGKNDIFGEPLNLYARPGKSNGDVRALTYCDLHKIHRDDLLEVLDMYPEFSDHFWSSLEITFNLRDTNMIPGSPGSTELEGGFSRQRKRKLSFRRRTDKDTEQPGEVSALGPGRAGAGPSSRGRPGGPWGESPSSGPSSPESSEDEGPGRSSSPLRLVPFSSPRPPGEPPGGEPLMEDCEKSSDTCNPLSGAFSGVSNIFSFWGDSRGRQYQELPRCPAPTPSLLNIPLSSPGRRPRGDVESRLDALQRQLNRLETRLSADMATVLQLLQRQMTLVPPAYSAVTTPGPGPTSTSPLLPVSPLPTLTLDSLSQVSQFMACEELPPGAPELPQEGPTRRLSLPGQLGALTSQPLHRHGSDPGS

[4] = system: extracellular DA levels in the NAC shell; experiment: In vivo microdialysis, extracellular DA in NAC shell; details: rat; for DA concentrations in NAC shell at times of conditioning sessions compared with 3.0 mg/kg cocaine (165% of basal): pretreatment 0, 45, 90 min; for rate of increase in DA concentrations: ±SEM
[5] = system: Y335A mutant DAT; details: transfected cells, cited from earlier work
[6] = i.p. (1 to 10 mg/kg), injected immediately before conditioning sessions
[7] = 10 mg/kg i.p., initial phase, first 30 min (cocaine: up to the maximum)

Structure (SMILES) | place conditioning (time allocated to compound-paired compartment) [2, 6] | selectivity K+ hERG channel over the DAT [3] | DA concentrations in NAC shell at times of conditioning sessions compared with 3.0 mg/kg cocaine (165% of basal) ([4]; 3.0 mg/kg i.p.) | duration of increase in DA levels ([4]; 10 mg/kg i.p.) | time after injection until which DA increase continued (peak) ([4]; 10 mg/kg i.p.) | rate of increase in DA concentrations [4, 7] | DA concentrations in NAC shell at times of conditioning sessions compared with 3.0 mg/kg cocaine (165% of basal) ([4]; 10.0 mg/kg i.p.) | effect on dialysate DA levels from the NAC shell ([4]; 3.0 mg/kg i.p.) | further results
COC(=O)[C@@H]1C(OC(c2ccc(Cl)cc2)c2ccc(Cl)cc2)C[C@@H]2CC[C@H]1N2C (mixture of isomers) [MFZ 4-87, (±)-2α-carbomethoxy-3R-[bis(4-chlorophenyl)methoxy]tropane] | did not produce a change in allocation of time to the compound-paired compartment | ~ 20 fold | levels that approximated those of cocaine in all but the first 30 min | ≥ 4 h | about 160 min | 5.59 (±0.712) %/min | levels that exceeded those of the 3.0 mg/kg dose of cocaine at all pretreatment times |  | selectivity for the DAT compared to any other site assayed [1]: ~ 30 fold; increase in dialysate DA concentrations ([4]; 1.0 mg/kg i.p.): ≤ 165 % of basal levels; increase in dialysate DA concentrations ([4]; 3.0 mg/kg i.p., slightly exceeded): exceeded 165 % of basal levels; maximum / maintained DA concentration ([4]; 10 mg/kg i.p.): about 350 % of basal levels
CCOC(=O)[C@@H]1C(OC(c2ccc(Cl)cc2)c2ccc(Cl)cc2)C[C@@H]2CC[C@H]1N2C (mixture of isomers) [MFZ 4-86, (±)-2α-carboethoxy-3R-[bis(4-chlorophenyl)methoxy]tropane] | without significant place-conditioning effects | ~ 20 fold | levels that approximated those of cocaine in all but the first 30 min | remained elevated for the entire five-hr session | about 120 min | 6.74 (±0.371) %/min | levels that exceeded those of the 3.0 mg/kg dose of cocaine at all pretreatment times | also increased DA concentrations, though less than at the higher dose | potency in Y335A mutant DAT relative to wild-type DAT (fold lower) ([5]; ref Loland et al. 2008): ~13 fold; effect on dialysate DA levels from the NAC shell ([4]; 1.0 mg/kg i.p.): increases in DA that did not achieve statistical significance; time after injection at which DA exceeded 165% of basal values ([4]; 3.0 mg/kg i.p.): 50 min; rate of increase in DA concentrations ([4]; 3.0 mg/kg i.p., initial phase (cocaine: up to the maximum)): 3.05 (±0.270) %/min; time after injection at which DA exceeded 165% of basal values ([4]; 10 mg/kg i.p.): 20 min
COC(=O)[C@H]1[C@@H](OC(=O)c2ccccc2)C[C@@H]2CC[C@H]1N2C [cocaine, (−)-cocaine, reference compound] |  |  |  |  |  | 11.4 (±0.860) %/min |  | significantly increased extracellular DA concentrations | place conditioning (time allocated to compound-paired compartment) ([2]; i.p., each dose tested, injected immediately before sessions): significant place conditioning; potency in Y335A mutant DAT relative to wild-type DAT ([5]; ref Loland et al. 2002): reduced by about two orders of magnitude; rate of increase in DA concentrations ([4]; 3.0 mg/kg i.p., initial phase (cocaine: up to the maximum), 3 mg/kg): 4.84 (±0.359) %/min and 4.84 %/min; effect on dialysate DA levels from the NAC shell ([4]; 10 mg/kg i.p.): significantly increased extracellular DA concentrations
